PubChem BioAssay (NCI)
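Growth conditions: 96-well plates. Treatment: test compound, 48 hours, 5 concentrations. Analysis: linear interpolation between bracketing concentrations; unreached endpoints set to highest concentration. GI50: concentration for 50% inhibition of growth. TGI: concentration producing complete growth inhibition.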

Legend:
Assay in all cases: NCI tumour cell line growth inhibition, 48 h
786-0 renal = system: 786-0 renal
A498 renal = system: A498 renal
A549 NSCLC = system: A549 NSCLC
ACHN renal = system: ACHN renal
BT-549 breast = system: BT-549 breast
CAKI-1 renal = system: CAKI-1 renal
CCRF-CEM leukemia = system: CCRF-CEM leukemia
COLO 205 colon = system: COLO 205 colon
DU-145 prostate = system: DU-145 prostate
EKVX NSCLC = system: EKVX NSCLC
HCC-2998 colon = system: HCC-2998 colon
HCT-116 colon = system: HCT-116 colon
HCT-15 colon = system: HCT-15 colon
HL-60(TB) leukemia = system: HL-60(TB) leukemia
HOP-62 NSCLC = system: HOP-62 NSCLC
HOP-92 NSCLC = system: HOP-92 NSCLC
HS 578T breast = system: HS 578T breast
K-562 leukemia = system: K-562 leukemia
KM12 colon = system: KM12 colon
M14 melanoma = system: M14 melanoma
MCF7 breast = system: MCF7 breast
MDA-MB-435 = system: MDA-MB-435
MOLT-4 leukemia = system: MOLT-4 leukemia
NCI-H226 lung = system: NCI-H226 lung
NCI-H460 lung = system: NCI-H460 lung
NCI-H522 lung = system: NCI-H522 lung
OVCAR-3 ovarian = system: OVCAR-3 ovarian
OVCAR-4 ovarian = system: OVCAR-4 ovarian
OVCAR-5 ovarian = system: OVCAR-5 ovarian
OVCAR-8 ovarian = system: OVCAR-8 ovarian
PC-3 prostate = system: PC-3 prostate
RPMI-8226 leukemia = system: RPMI-8226 leukemia
RXF 393 renal = system: RXF 393 renal
SF-268 CNS = system: SF-268 CNS
SF-295 CNS = system: SF-295 CNS
SF-539 CNS = system: SF-539 CNS
SK-MEL-2 melanoma = system: SK-MEL-2 melanoma
SK-MEL-28 melanoma = system: SK-MEL-28 melanoma
SK-MEL-5 melanoma = system: SK-MEL-5 melanoma
SK-OV-3 ovarian = system: SK-OV-3 ovarian
SN12C renal = system: SN12C renal
SNB-19 CNS = system: SNB-19 CNS
SNB-75 CNS = system: SNB-75 CNS
SR leukemia = system: SR leukemia
SW-620 colon = system: SW-620 colon
T-47D breast = system: T-47D breast
TK-10 renal = system: TK-10 renal
U251 CNS = system: U251 CNS
UACC-257 melanoma = system: UACC-257 melanoma
UACC-62 melanoma = system: UACC-62 melanoma
UO-31 renal = system: UO-31 renal
NCI-H23 lung = system: NCI-H23 lung
NCI/ADR-RES ovarian = system: NCI/ADR-RES ovarian

CC1(C)CC[C@]23CC[C@]4(C)[C@H](CC[C@@H]5[C@@]6(C)CC[C@H](N)C(C)(C)[C@@H]6CC[C@]54C)[C@H]2[C@H]1OC3
GI50 (786-0 renal): 1660 nM | TGI (786-0 renal): 3260 nM | GI50 (A498 renal): 11700 nM | TGI (A498 renal): 27100 nM | GI50 (A549 NSCLC): 1980 nM | TGI (A549 NSCLC): 4360 nM | GI50 (ACHN renal): 1820 nM | TGI (ACHN renal): 3260 nM | GI50 (BT-549 breast): 15400 nM | TGI (BT-549 breast): 29000 nM | GI50 (CAKI-1 renal): 1690 nM | TGI (CAKI-1 renal): 3190 nM | GI50 (CCRF-CEM leukemia): 2110 nM | TGI (CCRF-CEM leukemia): 36300 nM | GI50 (COLO 205 colon): 1910 nM | TGI (COLO 205 colon): 3620 nM | GI50 (DU-145 prostate): 1890 nM | TGI (DU-145 prostate): 3670 nM | GI50 (EKVX NSCLC): 1830 nM | TGI (EKVX NSCLC): 3840 nM | GI50 (HCC-2998 colon): 1760 nM | TGI (HCC-2998 colon): 3330 nM | GI50 (HCT-116 colon): 1740 nM | TGI (HCT-116 colon): 3200 nM | GI50 (HCT-15 colon): 1620 nM | TGI (HCT-15 colon): 3150 nM | GI50 (HL-60(TB) leukemia): 1670 nM | TGI (HL-60(TB) leukemia): 3780 nM | GI50 (HOP-62 NSCLC): 1880 nM | TGI (HOP-62 NSCLC): 3780 nM | GI50 (HOP-92 NSCLC): 2500 nM | TGI (HOP-92 NSCLC): 6590 nM | GI50 (HS 578T breast): 2580 nM | TGI (HS 578T breast): 6900 nM | GI50 (K-562 leukemia): 2080 nM | TGI (K-562 leukemia): 5940 nM | GI50 (KM12 colon): 1920 nM | TGI (KM12 colon): 3650 nM | GI50 (M14 melanoma): 1920 nM | TGI (M14 melanoma): 3880 nM | GI50 (MCF7 breast): 1620 nM | TGI (MCF7 breast): 3320 nM | GI50 (MDA-MB-435): 1910 nM | TGI (MDA-MB-435): 3730 nM | GI50 (MOLT-4 leukemia): 2170 nM | TGI (MOLT-4 leukemia): 7300 nM | GI50 (NCI-H226 lung): 5220 nM | TGI (NCI-H226 lung): 31100 nM | GI50 (NCI-H460 lung): 1850 nM | TGI (NCI-H460 lung): 3600 nM | GI50 (NCI-H522 lung): 2980 nM | TGI (NCI-H522 lung): 9750 nM | GI50 (OVCAR-3 ovarian): 1830 nM | TGI (OVCAR-3 ovarian): 3480 nM | GI50 (OVCAR-4 ovarian): 2750 nM | TGI (OVCAR-4 ovarian): 7480 nM | GI50 (OVCAR-5 ovarian): 1870 nM | TGI (OVCAR-5 ovarian): 3950 nM | GI50 (OVCAR-8 ovarian): 2570 nM | TGI (OVCAR-8 ovarian): 6840 nM | GI50 (PC-3 prostate): 2340 nM | TGI (PC-3 prostate): 6140 nM | GI50 (RPMI-8226 leukemia): 2730 nM | TGI (RPMI-8226 leukemia): 7210 nM | GI50 (RXF 393 renal): 1580 nM | TGI (RXF 393 renal): 2940 nM | GI50 (SF-268 CNS): 5980 nM | TGI (SF-268 CNS): 23500 nM | GI50 (SF-295 CNS): 1750 nM | TGI (SF-295 CNS): 3270 nM | GI50 (SF-539 CNS): 1740 nM | TGI (SF-539 CNS): 3220 nM | GI50 (SK-MEL-2 melanoma): 2980 nM | TGI (SK-MEL-2 melanoma): 10100 nM | GI50 (SK-MEL-28 melanoma): 1830 nM | TGI (SK-MEL-28 melanoma): 3930 nM | GI50 (SK-MEL-5 melanoma): 1740 nM | TGI (SK-MEL-5 melanoma): 3200 nM | GI50 (SK-OV-3 ovarian): 14100 nM | TGI (SK-OV-3 ovarian): 28700 nM | GI50 (SN12C renal): 1790 nM | TGI (SN12C renal): 3570 nM | GI50 (SNB-19 CNS): 1900 nM | TGI (SNB-19 CNS): 3720 nM | GI50 (SNB-75 CNS): 17000 nM | TGI (SNB-75 CNS): 38900 nM | GI50 (SR leukemia): 663 nM | TGI (SR leukemia): 4560 nM | GI50 (SW-620 colon): 2000 nM | TGI (SW-620 colon): 4100 nM | GI50 (T-47D breast): 3750 nM | TGI (T-47D breast): 19300 nM | GI50 (TK-10 renal): 15700 nM | TGI (TK-10 renal): 31100 nM | GI50 (U251 CNS): 1790 nM | TGI (U251 CNS): 3660 nM | GI50 (UACC-257 melanoma): 15300 nM | TGI (UACC-257 melanoma): 35600 nM | GI50 (UACC-62 melanoma): 1850 nM | TGI (UACC-62 melanoma): 3900 nM | GI50 (UO-31 renal): 1500 nM | TGI (UO-31 renal): 2970 nM

CNC(=O)c1c(NC(=O)c2ccc(F)cc2F)sc2c1CCC(=O)C2
GI50 (786-0 renal): 390 nM | TGI (786-0 renal): 13600 nM | GI50 (ACHN renal): 349 nM | TGI (ACHN renal): 1080 nM | GI50 (BT-549 breast): 345 nM | TGI (BT-549 breast): 2860 nM | GI50 (CAKI-1 renal): 236 nM | TGI (CAKI-1 renal): 1040 nM | GI50 (CCRF-CEM leukemia): 146 nM | TGI (CCRF-CEM leukemia): > 100000 nM | GI50 (EKVX NSCLC): 253 nM | TGI (EKVX NSCLC): > 100000 nM | GI50 (HOP-62 NSCLC): 1130 nM | TGI (HOP-62 NSCLC): > 100000 nM | GI50 (HS 578T breast): 439 nM | TGI (HS 578T breast): 5910 nM | GI50 (K-562 leukemia): 133 nM | TGI (K-562 leukemia): > 100000 nM | GI50 (MOLT-4 leukemia): 230 nM | TGI (MOLT-4 leukemia): > 100000 nM | GI50 (NCI-H23 lung): 251 nM | TGI (NCI-H23 lung): > 100000 nM | GI50 (NCI/ADR-RES ovarian): 265 nM | TGI (NCI/ADR-RES ovarian): > 100000 nM | GI50 (OVCAR-8 ovarian): 288 nM | TGI (OVCAR-8 ovarian): > 100000 nM | GI50 (RPMI-8226 leukemia): 227 nM | TGI (RPMI-8226 leukemia): > 100000 nM | GI50 (RXF 393 renal): 182 nM | TGI (RXF 393 renal): 1730 nM | GI50 (SF-268 CNS): 428 nM | TGI (SF-268 CNS): > 100000 nM | GI50 (SF-295 CNS): 1310 nM | TGI (SF-295 CNS): 5710 nM | GI50 (SK-OV-3 ovarian): 2590 nM | TGI (SK-OV-3 ovarian): 9620 nM | GI50 (SNB-19 CNS): 440 nM | TGI (SNB-19 CNS): > 52400 nM | GI50 (SNB-75 CNS): 722 nM | TGI (SNB-75 CNS): 3300 nM | GI50 (SR leukemia): 89 nM | TGI (SR leukemia): > 100000 nM | GI50 (TK-10 renal): 431 nM | TGI (TK-10 renal): 17700 nM | GI50 (U251 CNS): 288 nM | TGI (U251 CNS): > 100000 nM
